Data: patent publication US20080076721A1, “Use of branched chain fatty acid amino acid salts and compositions thereof” (priority 2006, published 2008)
“Also recorded” adds a separate entry of the source.

Assay: L-arginine phytanate method of use: 4-week oral post-workout supplementation in an experienced weight trained person (body weight, bench press)
Format: in vivo, human
Text: In this example a experienced weight trained person orally consumes 3 grams of L-arginine phytanate post workout for 4 weeks as a beverage, consumes no supplements for 4 weeks, then orally consumes phytanic acid in the same manner post workout for 4 weeks. The L-arginine phytanate is incorporated into free powder mixture of flavoring agents and palatinose, which is then combined with water. Once in the plasma L-arginine phytanate then exerts a synergistic lean tissue promoting effect due to the anabolic actions of phytanic acid and L-arginine. Phytanic acid activates PPAR alpha, beta/delta, gamma, and increases nitric oxide synthase thus increasing nitric oxide production. This wide range of PPAR receptor activation and nitric oxide release combined with a high protein diet and anaerobic training program, enhances muscle building and fat loss. The L-arginine synergistically promotes protein synthesis and nitric oxide release. These physiological functions lead to increases in lean body mass, strength, endurance, recovery and loss of body fat. The test subject reported a weight gain of 5 lbs., a 25-pound increase in 1 repetition maximum (RM) bench press, and 6-repetition increase in initial 70 percent maximum bench press at the end of the L-arginine phytanate 4-week period as compared to baseline values. These increases contribute to the regulation of athletic function and thus lead to enhanced physical performance. […] During the final phase of the experiment, the test subject reported no increases in body weight, 1 repetition maximum bench press, or 70 percent maximum bench press.

[1] = experienced weight trained person, 3 grams orally post workout for 4 weeks, end of 4-week period compared to baseline
[2] = same subject, final phase after 4-week washout, orally in the same manner post workout for 4 weeks, result in words

Row | SMILES | weight gain (experienced weight trained person, 3 grams orally post workout for 4 weeks as a beverage, end of 4-week period compared to baseline) [lbs.] | increase in 1 repetition maximum (RM) bench press [1] [pound] | increase in initial 70 percent maximum bench press [1] [repetition] | 1 repetition maximum bench press change [2] | 70 percent maximum bench press change [2] | body weight change [2]
1 | CC(C)CCCC(C)CCCC(C)CCCC(C)CC(=O)O.N=C(N)NCCC[C@H](N)C(=O)O [L-arginine phytanate, 3,7,11,15-tetramethylhexadecanoic L-arginine salt] | 5 | 25 | 6 | – | – | –
2 | CC(C)CCCC(C)CCCC(C)CCCC(C)CC(=O)O (stereo not drawn) [phytanic acid, 3,7,11,15-tetramethylhexadecanoic acid] | – | – | – | no increases | no increases | no increases; also recorded: decrease in body weight
